We go through three molecules from US11845938B2, “Aptamer compositions and the use thereof” (City of Hope, priority 2016, dated 2023).

For data set [1] the following is noted: bypassing dCK deficiency, reference [5]; cited from earlier work.
Data set [2] has as its system PANC-1 cells. The data set can be described thus: Flow cytometry-based binding assay, apparent dissociation constant (KD) of Cy3-labeled aptamers. The settings on record: flow cytometry MFI, one-site binding model, read-out: binding affinity (dissociation constant, KD). As to the method:
FIGS. 1A-1D. ApDCs of gemcitabine and 5-FU. (FIG. 1A) Chemical structure of gemcitabine and 5-FU prodrug (5F-dUTP). (FIG. 1B) The sequence of P19 incorporated with dFdCMP (dFdCTP) (SEQ ID NO: 18) and 5FdUMP (5FdUTP) (SEQ ID NO: 19) into P19, instead of 2′F-CTP and 2′F-UTP. (FIG. 1C) Intrinsic incorporation of active metabolites of gemcitabine (dFdCMP) and 5FdUMP in P19. M: Marker. 1:P19, 2: P19-dFdCMP, 3:P19-5FdUMP. (FIG. 1D) The dissociation constant (KD) was measured by flow cytometry using increasing concentrations of Cy3-labeled aptamers (from 15.6 to 1000 nM). Mean fluorescence intensity (MFI) was measured and calculated using a one-site binding model for non-linear regression.
FIGS. 4A-4C. […] Mean fluorescence intensity (MFI) was measured and calculated using a one-site binding model for non-linear regression. […] (FIG. 4B) The pancreatic cell lines PANC-1 and AsPC-1 were treated with 200 nM of the Cy3-labeled tP19 aptamer and analyzed by confocal microscopy. […]
Aptamer binding and uptake was also assessed by flow cytometry. […] Cells were washed with binding buffer and immediately analyzed by Fortessa flow cytometry (BD). […] The data were analyzed with FlowJo software.
To determine the apparent dissociation constant (KD) of aptamers to PANC-1 cells, the mean fluorescence intensity (MFI) was calculated for each concentration and for the unselected library controls. […]
On the technique in general: A flow cytometer gives signals particle by particle.

The test system of data set [3] is PANC-1 cells. The data set is described as follows: Live-cell confocal imaging, aptamer internalization. The class given is cell-based. The following applies: Cy3-labeled RNAs at 200 nM, 2 hour, confocal microscopy. On the procedure:
FIGS. 2A-2D. Cell proliferation assay of dFdC-P19-ApDC and 5FdU-P19-ApDC. (FIGS. 2A-2B) The pancreatic cell lines PANC-1 were treated with 200 nM of the Cy3-labeled dFdCMP-P19-ApDC (FIG. 2A) or 5FdUMP-P19-ApDC (FIG. 2B) and analyzed by confocal microscopy. […] Dyes: Cy3 labeled RNAs, Hoechst 33342. Scale bar: […]. (FIG. 2C) After treatment dFdCMP-P19-ApDC or 5FdUMP-P19-ApDC in PANC-1 cells for 72 hrs, cell viability was measured by MTT assay. One-way ANOVA test: ****≤0.0001, ***≤0.001. (FIG. 2D) After treatment dFdCMP-P19-ApDC or 5FdUMP-P19-ApDC in chemo-resistance AsPC-1 cells for 72 hrs, cell viability was measured by MTT assay. One-way ANOVA test: ****≤0.0001, ***≤0.001
(§1) FIGS. 4A-4C. Binding affinity and cell internalization of truncated P19 (tP19). (FIG. 4A) The dissociation constant (KD) was measured by flow cytometry using increasing concentrations of Cy3-labeled aptamers (from 15.6 to 500 nM). Mean fluorescence intensity (MFI) was measured and calculated using a one-site binding model for non-linear regression. […] (FIG. 4B) The pancreatic cell lines PANC-1 and AsPC-1 were treated with 200 nM of the Cy3-labeled tP19 aptamer and analyzed by confocal microscopy. […] (FIG. 4C) Non pancreatic lines including Huh7, HepG2, MCF7 and PC3 cells were also treated with 200 nM of Cy3-labeled tP19 and P1 aptamers. […] Dye Hoechst 33342. Scale bar: 10 μm.
FIGS. 5A-5D. […]

In another data set the test system is AsPC-1 cells. The data set is described as above. The data set is classed as cell-based. The settings on record: 200 nM Cy3-labeled aptamer, confocal microscopy. On the procedure: as §1
(§2) For the aptamer internalization studies, 1×10^5 cells were seeded in 35 mm glass-bottom dishes (MatTek, Ashland, Mass., USA) and grown in medium for 24 hrs. The RNAs were labeled with Cy3 using the Cy3 Silencer siRNA labeling kit (Ambion, Tex., USA.). Cy3-labeled RNAs were added to the cells at 200 nM or 500 nM and incubated for 2 hour. The images were taken using a Zeiss LSM 510 Meta Inverted 2 photon confocal microscope system using a C-Apo 40x/1.2NA water immersion objective.

Data set [4] relates to Huh7, HepG2, MCF7 and PC3 cells. The data set is described as follows: Live-cell confocal imaging, aptamer internalization in non pancreatic lines. The data set is classed as cell-based. The following applies: 200 nM Cy3-labeled aptamer. On the procedure: as §1, §2

“Also recorded” adds a separate entry of the source.

gemcitabine monophosphate [dFdCMP]: the “effectiveness relative to dFdC” value in data set [1] is 4 fold.

With “tP19: truncated form of aptamer P19, SEQ ID NO: 3, 28 bps in length, mHSP70 binding aptamer (CUCAAUGGCGAAUGCCCGCCUAAUAGGG; listed as RNA, chemistry not fully specified)”, in the data set on PANC-1 cells [2], the Kd came to 8.57 nM. Also, in the data set on PANC-1 cells [3], the “internalization into PANC-1 cells” value was “internalized into PANC-1 and AsPC-1 cells”. Also, in the data set with AsPC-1 cells, the “internalization into AsPC-1 cells” value is “internalized into PANC-1 and AsPC-1 cells”. For the same molecule, the “internalization (Cy3 signal) in non-pancreatic cancer cell lines” value in data set [4] was “No Cy3 signal was observed; also recorded: not in non-pancreatic cancer cell lines”.

B1: P1: RNA aptamer SEQ ID NO: 1, mHSP70 binding aptamer internalizing upon binding mHSP70 at the cell surface (nucleic acid)
chain: GGGAGACAAGAAUAAACGCUCAAUGCGCUGAAUGCCCAGCCGUGAAAGCGUCGAUUUCCAUCCUUCGACAGGAGGCUCACAACAGGC
modifications: listed as RNA, chemistry not fully specified
As for B1, the “internalization (Cy3 signal) in non-pancreatic cancer cell lines” value in data set [4] is “No Cy3 signal was observed”.
